For four molecules, IC50 results are on record in article PMC8805605, “Discovery of Dimeric Arylsulfonamides as Potent ADAM8 Inhibitors” (ACS Medicinal Chemistry Letters, 2021).

The assay addresses T1, ADAM10 (Homo sapiens, UniProt O14672).
T1 construct: purchased R&D Systems
T1 sequence (O14672 214-748): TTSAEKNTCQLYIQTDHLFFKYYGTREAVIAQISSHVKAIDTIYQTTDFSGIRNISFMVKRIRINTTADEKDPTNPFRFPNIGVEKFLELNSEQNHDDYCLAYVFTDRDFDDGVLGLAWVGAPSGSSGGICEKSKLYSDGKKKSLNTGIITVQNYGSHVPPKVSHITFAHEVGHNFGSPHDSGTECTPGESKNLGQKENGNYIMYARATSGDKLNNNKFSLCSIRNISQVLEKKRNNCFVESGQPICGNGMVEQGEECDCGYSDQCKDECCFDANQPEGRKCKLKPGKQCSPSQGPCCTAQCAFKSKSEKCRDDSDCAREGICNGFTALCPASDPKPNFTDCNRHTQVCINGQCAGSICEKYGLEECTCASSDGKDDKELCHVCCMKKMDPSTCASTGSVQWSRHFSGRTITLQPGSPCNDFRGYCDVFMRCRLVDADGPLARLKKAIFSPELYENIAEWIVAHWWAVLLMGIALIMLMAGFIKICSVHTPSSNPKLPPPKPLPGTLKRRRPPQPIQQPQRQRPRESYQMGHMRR
Kind of assay: ADAM10 fluorometric inhibition assay. The format is biochemical. The conditions noted are these: mean of three independent experiments in duplicate, read-out: In vitro inhibitory activity IC50 on ADAM10. On the procedure: The newly synthesized bivalent derivatives 1–3 were then tested in vitro on human recombinant ADAM8 in comparison with JG26 by a fluorometric assay. The inhibitory activity against a panel of MMPs and ADAM10/17 was determined as well to assess their selectivity profile. […]
VI. Biological Activity on Isolated Enzymes
MMP and ADAM10 inhibition assays.
Recombinant human MMP-14 catalytic domain was a kind gift of Prof. Gillian Murphy (Department of […]
Oncology, University of Cambridge, UK). Pro-MMP-1, pro-MMP-2, and pro-MMP-9, were purchased […]
from Calbiochem (Merck-Millipore). Pro-MMP-12 and ADAM10 were purchased from R&D Systems.
Proenzymes were activated immediately prior to use with p-aminophenylmercuric acetate (APMA 2 […]
mM for 1 h at 37°C for MMP-2 and MMP-1, 1 mM for 1 h at 37°C for MMP-9). Pro-MMP-12 was […]
auto activated by incubating in the fluorometric assay buffer (FAB: Tris 50 mM, pH = 7.5, NaCl 150 […]
mM, CaCl2 10 mM, Brij 35 0.05% and DMSO 1%) for 30 h at 37°C. For assay measurements, each […]
inhibitor stock solution (DMSO, 10 mM) was further diluted in FAB at seven different concentrations.
Activated enzyme (final concentration 0.56 nM for MMP-2, 1.3 nM for MMP-9, 1.0 nM for MMP- […]
14cd, 2.0 nM for MMP-1, 2.3 nM for MMP-12 and 20 nM for ADAM10) and inhibitor solutions were […]
incubated in the assay buffer for 3 h at 25 °C. ADAM10 was incubated for 1 h at 37°C in a different […]
buffer at pH 9 (Tris 25 mM, ZnCl2 25 µM, Brij-35 0.005 %). After the addition of 200 µM solution of […]
the fluorogenic substrate Mca-Lys-Pro-Leu-Gly-Leu-Dap(Dnp)-Ala-Arg-NH2 (Bachem) for all the […]
enzymes in DMSO (final concentration 2 µM for all enzymes, 10 µM for ADAM10), the hydrolysis […]
was monitored every 10 sec. for 15 min. recording the increase in fluorescence (λ ex = 325 nm, λ em = […]
400 nm) using a Molecular Devices SpectraMax Gemini XPS plate reader. The assays were performed […]
in triplicate in a total volume of 200 μL per well in 96-well microtitre plates (Corning, black, NBS).
Control wells lack inhibitor. The MMP inhibition activity was expressed in relative fluorescent units […]
(RFU). Percent of inhibition was calculated from control reactions without the inhibitor. IC50 was determined using the formula: v i/v o = 1/(1 + [I]/ IC50), where v i is the initial velocity of substrate cleavage in the presence of the inhibitor at concentration [I] and v o is the initial velocity in the absence of the inhibitor. Results were analyzed using SoftMax Pro software (version 5.4.3, Molecular Devices, Sunnyvale, CA) and Prism Software version 5.0 (GraphPad Software, Inc., La Jolla, CA, USA).
ADAM8 and ADAM17 inhibition assays […]

As for `O=C(CCCNC(=O)c1cccc(C(=O)NCCCC(=O)NCCC[C@@H](NS(=O)(=O)c2ccc(OCc3cc(Br)cc(Br)c3)cc2)C(=O)NO)c1)NCCC[C@@H](NS(=O)(=O)c1ccc(OCc2cc(Br)cc(Br)c2)cc1)C(=O)NO` [Compound 1], the IC50 was 30.6 µM.

On to `O=C(NCCC[C@@H](NS(=O)(=O)c1ccc(OCc2cc(Br)cc(Br)c2)cc1)C(=O)NO)c1cccc(C(=O)NCCC[C@@H](NS(=O)(=O)c2ccc(OCc3cc(Br)cc(Br)c3)cc2)C(=O)NO)c1` [Compound 2], for which the IC50 amounted to 10 µM.

As to `O=C(NCCC[C@@H](NS(=O)(=O)c1ccc(OCc2cc(Br)cc(Br)c2)cc1)C(=O)NO)NCCC[C@@H](NS(=O)(=O)c1ccc(OCc2cc(Br)cc(Br)c2)cc1)C(=O)NO` [Compound 3], the IC50 was found to be 27.4 µM.

As to `NC(=O)NCCC[C@@H](NS(=O)(=O)c1ccc(OCc2cc(Br)cc(Br)c2)cc1)C(=O)NO` [JG26, reference compound], the IC50 is 0.15 µM.
